Numbers after ± are expanded uncertainties.
Conditions: 101.33 kPa, Crystal, Vacuum adiabatic calorimetry

O=C([O-])[O-].[Pb+2] [lead(II) carbonate]
Conditions	molar entropy [J/K/mol]
5 K	0.0215 ± 0.015
10 K	0.2771 ± 0.018
15 K	1.17 ± 0.027
20 K	2.745 ± 0.038
25 K	4.823 ± 0.048
30 K	7.25 ± 0.082
35 K	9.921 ± 0.09
40 K	12.76 ± 0.1
45 K	15.72 ± 0.11
50 K	18.76 ± 0.12
55 K	21.83 ± 0.13
60 K	24.93 ± 0.14
65 K	28.02 ± 0.14
70 K	31.09 ± 0.15
75 K	34.13 ± 0.16
80 K	37.12 ± 0.17
85 K	40.07 ± 0.18
90 K	42.97 ± 0.36
95 K	45.81 ± 0.37
100 K	48.59 ± 0.37
110 K	53.97 ± 0.38
120 K	59.11 ± 0.39
130 K	64.03 ± 0.4
140 K	68.74 ± 0.4
150 K	73.25 ± 0.41
160 K	77.6 ± 0.42
170 K	81.78 ± 0.42
180 K	85.81 ± 0.43
190 K	89.7 ± 0.43
200 K	93.46 ± 0.44
210 K	97.11 ± 0.45
220 K	100.6 ± 0.5
230 K	104.1 ± 0.5
240 K	107.4 ± 0.5
250 K	110.7 ± 0.5
260 K	113.9 ± 0.5
270 K	117 ± 0.5
273.15 K	118 ± 0.5
280 K	120.1 ± 0.5
290 K	123 ± 0.5
298.15 K	125.4 ± 0.7
300 K	126 ± 0.5
310 K	128.9 ± 0.5
320 K	131.7 ± 0.5
